The values that follow come from PMC11413854, “Reversible Control of Native GluN2B-Containing NMDA Receptors with Visible Light” (ACS Chemical Neuroscience, 2024).

For this assay, the target named is T1, GluN1/GluN2B NMDA receptors (UniProt P35439+Q01097).
T1 construct: expressed in transfected cells; host or cells: Xenopus laevis oocytes (nuclear cDNA injection)
In words: TEVC electrophysiology on Xenopus oocytes expressing wt GluN1/GluN2B NMDARs. In kind it is cell-based, rat GluN1, mouse GluN2B. The note with it: for remaining activity at 2 µM / remaining activity at 7.5 µM / remaining activity at 10 µM / remaining activity at 25 µM / remaining activity at 70 µM / remaining activity at 1 µM / remaining activity at 5 µM / remaining activity at 50 µM / remaining activity at 90 µM / remaining activity at 100 µM: GluN1/GluN2B wt, read-out: Relative current (IOpto/I0); for UV/dark IC50 ratio (365 nm PSS vs dark): preilluminated in solution; for shift in IC50 compared to parent compound: trans configuration (dark). An excerpt: The activity of OptoNAM-3 was functionally monitored by electrophysiology on Xenopus oocytes (see Methods). To assess the light-dependent effect, we tested the activities of the dark PSS (mostly trans) and the UV PSS (mostly cis, see above) separately. For each concentration, we prepared a solution divided into two samples: one in which the compound was kept in the dark for the duration of the experiment (dark PSS state); and the other that was preilluminated with either 350 or 365 nm light (350 or 365 nm PSS) and then kept away from the light for the duration of the experiment in order to avoid photoisomerization of the compounds by ambient light (see Methods). […] We generated dose–response curves of OptoNAM-3 dark and UV PSS on wild-type (wt) GluN1/GluN2B NMDA receptors (Figure 3A) in the presence of saturating concentrations of agonists (100 μM glutamate and glycine).
We used cDNA coding for rat GluN1–1a (named GluN1 herein) (GenBank: U08261.1), rat GluN2A (GenBank: D13211.1), mouse GluN2B (GenBank: D10651.2), rat GluA1 flop (GenBank: M36418.2), and rat Myc-GluA2(Q)-flip (GenBank: AF164344.1) cloned into pcDNA3-based expression plasmids. GluK2 (GenBank: Z11548.1) corresponds to the fully RNA-edited version.[80] The GluN2B-ΔNTD construct is from ref[45] and GluN2B–N615K is from ref[81]. Single mutants GluN2B-Q110G and GluN1-L135H were from ref[19]. The GluA2 cDNA contains a Myc tag ([…]) fused between the signal peptide and the N-terminus sequences, and the GluA2 subunit is […] for its Q/R/N site (GluA2(Q)) to allow permeation of homomeric GluA2 receptors.[2] cDNAs coding for rat GluN2C (GenBank: M91563.1) and GluN2D subunits (GenBank: L31611.1) were in prK5 plasmids.
Oocytes from Xenopus laevis were used for heterologous expression of recombinant NMDA receptors studied using a two-electrode voltage clamp (TEVC). Female Xenopus laevis were housed and ovary bags harvested according to the European Union guidelines (husbandry authorizations #C75–05–31 and #D75–05–31; project authorizations #05137.02; and Apafis #28867–2020121814485893). Fragments of ovary bags were also purchased from the “Centre de Ressources Biologiques Xenopes” (now TEFOR, Paris Saclay, France) and from the European Xenopus Resource Center (EXRC, Portsmouth, UK). Xenopus laevis oocytes were harvested and prepared as previously described in ref[82].
Expression of recombinant NMDA receptors was obtained by oocyte nuclear coinjection of 37 nL of a mixture of cDNAs (at 30 ng/μL) coding for GluN1–1a and various GluN2 subunits (ratio 1:1). The protocol in ref[43] was followed for the expression of GluN1/GluN2A/GluN2B triheteromers. The oocytes were transferred in 96-well plates filled with Barth solution (in mM: 88 NaCl, 1 KCl, 0.33 Ca(NO3)2, 0.41 CaCl2, 0.82 MgSO4, 2.4 NaHCO3, and 7.5 HEPES, pH adjusted to 7.3 with NaOH), supplemented with gentamicin ([…]) and 50 μM APV, a selective NMDA receptor antagonist. Plates were then stored at 18 °C for 24 h for GluN1/GluN2A expression and for 48––72 h for the expression of GluN1/Glu2B, GluN1/GluN2A/GluN2B, and mutants.
TEVC recordings were performed 1–3 days following injection. TEVC recordings were performed using an Oocyte Clamp amplifier OC-725 (Warner Instruments) and computer-controlled via a 1440A Digidata (Molecular Devices). Currents were sampled at 100 Hz and low-pass-filtered at 20 Hz using an 8-pole Bessel filter (900 Series, Frequency Devices Inc.).

The mark [1] stands for this setting: 365 nm PSS, 100 µM glutamate + glycine, Xenopus oocytes, read-out: IC50 on GluN1/GluN2B receptors, preilluminated with 365 nm.
[2] abbreviates: Sup. Fig. 2G, trans isomer, source: this paper, read-out: activity (Ki or IC50).

Where two headings read alike, the source gives them in different places. A value given as a limit tells only on which side of the number the result lay.

T1 sequence (Q01097 27-1482, other chains not shown): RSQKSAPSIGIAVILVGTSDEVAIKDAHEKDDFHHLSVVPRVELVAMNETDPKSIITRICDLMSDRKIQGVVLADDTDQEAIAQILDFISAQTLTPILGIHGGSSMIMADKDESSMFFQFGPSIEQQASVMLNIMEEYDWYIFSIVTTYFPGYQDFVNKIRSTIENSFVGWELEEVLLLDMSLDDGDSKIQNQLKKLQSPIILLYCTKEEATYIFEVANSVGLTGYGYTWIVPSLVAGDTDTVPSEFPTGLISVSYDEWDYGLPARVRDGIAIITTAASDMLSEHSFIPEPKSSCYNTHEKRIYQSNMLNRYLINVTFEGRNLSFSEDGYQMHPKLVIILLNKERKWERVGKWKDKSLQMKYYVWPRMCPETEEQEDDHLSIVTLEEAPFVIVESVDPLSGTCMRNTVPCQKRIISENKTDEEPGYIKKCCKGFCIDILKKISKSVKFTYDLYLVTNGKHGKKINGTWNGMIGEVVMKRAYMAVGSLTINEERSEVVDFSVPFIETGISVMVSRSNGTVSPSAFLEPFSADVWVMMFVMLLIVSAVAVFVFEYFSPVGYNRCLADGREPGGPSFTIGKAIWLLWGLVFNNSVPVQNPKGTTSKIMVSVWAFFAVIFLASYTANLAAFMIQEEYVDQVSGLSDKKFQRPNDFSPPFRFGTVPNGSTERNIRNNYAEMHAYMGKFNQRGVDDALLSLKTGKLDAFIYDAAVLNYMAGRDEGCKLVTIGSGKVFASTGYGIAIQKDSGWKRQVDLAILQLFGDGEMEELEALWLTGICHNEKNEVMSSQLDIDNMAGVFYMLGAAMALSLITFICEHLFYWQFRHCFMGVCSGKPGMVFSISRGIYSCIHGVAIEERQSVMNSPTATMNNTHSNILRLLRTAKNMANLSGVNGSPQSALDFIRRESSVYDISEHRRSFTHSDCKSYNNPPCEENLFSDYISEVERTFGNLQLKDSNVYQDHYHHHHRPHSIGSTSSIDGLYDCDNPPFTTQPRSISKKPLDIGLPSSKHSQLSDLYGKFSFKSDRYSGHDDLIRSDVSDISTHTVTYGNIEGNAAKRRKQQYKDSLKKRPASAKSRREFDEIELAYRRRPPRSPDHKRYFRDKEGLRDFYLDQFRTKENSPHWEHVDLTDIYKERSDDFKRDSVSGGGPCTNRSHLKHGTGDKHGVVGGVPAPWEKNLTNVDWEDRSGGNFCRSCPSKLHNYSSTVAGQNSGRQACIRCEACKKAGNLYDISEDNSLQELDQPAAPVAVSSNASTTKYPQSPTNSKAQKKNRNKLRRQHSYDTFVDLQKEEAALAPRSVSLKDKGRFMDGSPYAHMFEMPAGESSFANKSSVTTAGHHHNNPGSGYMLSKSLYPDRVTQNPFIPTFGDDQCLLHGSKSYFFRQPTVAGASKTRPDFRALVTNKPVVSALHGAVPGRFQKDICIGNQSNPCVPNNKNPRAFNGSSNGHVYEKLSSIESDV

Turning to `Nc1ccnc(/N=N/c2ccccc2)c1` [OptoNAM-1, (E)-2-(phenyldiazenyl)pyridin-4-amine], the “shift in IC50 compared to parent compound” value is on record as more than 1000 fold. Further, under setting [1], the IC50 was found to be 37 ± 2 µM. Further, where the note is “365 nm PSS”, the remaining activity at 2 µM was determined as 91.1%, the remaining activity at 7.5 µM is 81.8%, the remaining activity at 10 µM was 78% and the remaining activity at 25 µM turned out to be 58.1%. Further, where the note is “365 nm PSS”, the remaining activity at 70 µM came to 35%. Where the note is “dark PSS (trans)”, the remaining activity at 2 µM worked out at 83.8%, the remaining activity at 7.5 µM was 66.1%, the remaining activity at 10 µM worked out at 49.9% and the remaining activity at 25 µM is 28.4%. For the same molecule, the remaining activity at 70 µM (dark PSS (trans)) was determined as 13.4%. Also, the IC50 under setting [2] is 11 µM. Further, for the setting “Xenopus oocytes”, the “UV/dark IC50 ratio (365 nm PSS vs dark)” value is listed as 3.4 fold.
`Cc1cc(N)nc(/N=N/c2ccccc2)c1` [OptoNAM-2, (E)-4-methyl-6-(phenyldiazenyl)pyridin-2-amine]: the “shift in IC50 compared to parent compound” value is more than 1000 fold. Moreover, the IC50 under setting [1] came to 117 ± 10 µM. Also, under “365 nm PSS”, the remaining activity at 1 µM is 94.5%, the remaining activity at 5 µM stood at 92.7%, the remaining activity at 10 µM amounted to 90% and the remaining activity at 25 µM came to 84.2%. In addition, where the note is “365 nm PSS”, the remaining activity at 50 µM worked out at 63.5%, the remaining activity at 90 µM came out at 50% and the remaining activity at 100 µM was 49.3%. Further, under “dark PSS (trans)”, the remaining activity at 1 µM amounted to 92.5%, the remaining activity at 5 µM worked out at 84.8%, the remaining activity at 10 µM came to 75.5% and the remaining activity at 25 µM was found to be 47.3%. In addition, for the setting “dark PSS (trans)”, the remaining activity at 50 µM was 31.1%, the remaining activity at 90 µM was found to be 22.1% and the remaining activity at 100 µM amounted to 14.4%. For the same molecule, under setting [2], the IC50 was determined as 24 µM. Where the note is “Xenopus oocytes”, the “UV/dark IC50 ratio (365 nm PSS vs dark)” value was 4.9 fold.
